In PubChem BioAssay (NCI):
Several values for one entry are separate records, joined by “and”; a condition that tells them apart may be missing. Equal values may be shown once.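 Compound exposure: 48 hours, 5 concentrations, 96-well plates. Abbreviation: GI50, concentration required for 50% inhibition of growth. TGI: total growth inhibition.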

Key:
Assay in all cases: NCI-60 cell line screen, 48 h
[1] = test system: PC-3 prostate
[2] = test system: SK-MEL-28 melanoma
[3] = test system: MCF7 breast
[4] = test system: HOP-62 NSCLC
[5] = test system: U251 CNS
[6] = test system: SK-MEL-5 melanoma
[7] = test system: HCC-2998 colon
[8] = test system: HT29 colon
[9] = test system: T-47D breast
[10] = test system: MOLT-4 leukemia

Row | SMILES | GI50 [1] | TGI [1] | GI50 [2] | TGI [2] | GI50 [3] | TGI [3] | GI50 [4] | TGI [4] | GI50 [5] | TGI [5] | GI50 [6] | TGI [6] | GI50 [7] | TGI [7] | GI50 [8] | TGI [8] | GI50 [9] | TGI [9] | TGI [10] | GI50 [10]
1 | C[C@@]1(C(=O)O)CCC[C@]2(C)C1CC[C@@]13C[C@@](O)(CC[C@]12O)[C@@]1(CO1)C3 (some centres not stated) | > 100 µM | > 100 µM | > 100 µM | > 100 µM | > 100 µM | > 100 µM | > 100 µM | > 100 µM | > 100 µM | > 100 µM | > 100 µM | > 100 µM | > 100 µM | > 100 µM | > 100 µM | > 100 µM | > 100 µM | > 100 µM | – | –
2 | CC(CC(=O)N1C(=O)C(C)(C)[C@@H](O)[C@H]1CC(C)C(Cl)(Cl)Cl)C(Cl)(Cl)Cl (some centres not stated) | – | – | – | – | – | – | – | > 100 µM | – | > 100 µM | – | > 100 µM | – | > 100 µM | – | > 100 µM | – | – | > 100 µM | –
3 | COc1cc(-c2nccc3cc(OC)c(OC)cc23)ccc1O | – | – | – | > 100 µM | – | – | – | > 100 µM | – | > 100 µM | – | > 100 µM | – | > 100 µM | – | > 100 µM | – | – | 91.8 µM | –
4 | COc1cc(Oc2c(C)c(Cl)c(OC)c(Cl)c2OC)c2c(c1Cl)COC2=O | – | – | – | > 100 µM | – | 86.2 µM | – | – | – | > 100 µM | – | 49.2 µM | – | > 100 µM | – | > 100 µM | – | > 100 µM | 69.1 µM | –
5 | Cc1n[nH]c(=S)n(C)c1=S | – | – | – | > 100 µM | – | – | – | > 100 µM | – | > 100 µM | – | – | – | – | – | – | – | – | > 100 µM | –
6 | CCC[CH2][Sn]([CH2]CCC)([O]c1cccc2cccnc12)[O]c1cccc2cccnc12 | – | – | 0.146 µM | 0.332 µM | – | – | 6.31 µM | 19.2 µM | 0.198 µM | 0.368 µM | 0.192 µM | 0.409 µM | 0.36 µM | 0.842 µM | 0.484 µM | 1.72 µM | – | – | 0.377 µM | 0.159 µM
7 | CCOC(=O)C(=O)Nc1nc2c(OCC)cccc2s1 | – | – | – | > 100 µM | – | – | – | > 100 µM | – | > 100 µM | – | > 100 µM | – | > 100 µM | – | > 100 µM | – | – | > 100 µM | –
8 | O=C1C(Cl)=C(Nc2ccc(Nc3ccccc3)c(NC3=C(Cl)C(=O)c4ccccc4C3=O)c2)C(=O)c2ccccc21 | 3.63 µM | 24.8 µM | 32.9 µM | 96.5 µM | 5.31 µM | 44 µM | 2.71 µM | > 100 µM | 2.32 µM | 7.22 µM | 13.1 µM | 32 µM | 6.71 µM | 41.2 µM | 16.1 µM | > 100 µM | 1.95 µM | 4.75 µM | – | –
9 | COc1cc(/C=C(\NC(=O)c2ccccc2)c2nc3ccc4c(c3[nH]2)C(=O)c2ccccc2C4=O)cc(OC)c1OC | – | – | – | > 100 µM | – | – | – | > 100 µM | – | > 100 µM | – | > 100 µM | – | > 100 µM | – | > 100 µM | – | – | 43 µM | –
10 | CC1CCN(Cc2ccc(NC(=O)c3cc4ccc5cccnc5c4[nH]3)cc2)CC1 | 5.1 µM | 23.7 µM | 1.79 µM | 3.49 µM | 2.48 µM | 14.7 µM | 5.27 µM | 33.9 µM | 2.8 µM | 10.3 µM | – | – | 2.55 µM | 5.8 µM | 3 µM | 14.5 µM | 6.81 µM | 28.3 µM | 9.85 µM | 3 µM
11 | O=S(=O)(CCN1CCOCC1)Nc1cc(-c2ccc3ncnc(Nc4ccc(F)c(Cl)c4)c3c2)cnc1Cl | 0.36 µM | 15.1 µM | 0.297 µM | 8.62 µM | 0.335 µM | 22.9 µM | 0.578 µM | 14.2 µM | 0.909 µM | 10.5 µM | 0.313 µM | 1.58 µM | 1.05 µM | 7.73 µM | 0.674 µM | 17.7 µM | 0.07 µM | 0.975 µM | – | –
12 | COc1ccc(/C=C2\CN(C(=O)C(Cl)Cl)C/C(=C\c3ccc(OC)cc3)C2=O)cc1 | – | – | – | – | 0.296 µM | 1.51 µM | – | – | – | – | – | – | 1.02 µM | 2.2 µM | – | – | – | – | > 100 µM | 1.78 µM
13 | NC(=NCc1ccccc1)C(N=Nc1ccccc1)C(=O)NCc1ccccc1 (configuration not stated) | 1.84 µM | 4.02 µM | 20.4 µM | 45.7 µM | 12 µM | 32 µM | 12.6 µM | 29.6 µM | 5.75 µM | 25.9 µM | 23.4 µM | 67.3 µM | 11.5 µM | 29.9 µM | – | – | 13.6 µM | 35.4 µM | > 100 µM | 5.53 µM
14 | O=c1[nH]c2ccccc2c2nc3ccccc3n12 | – | > 100 µM | – | – | – | > 100 µM | – | > 100 µM | – | > 100 µM | – | > 100 µM | – | > 100 µM | – | > 100 µM | – | > 100 µM | > 100 µM | –
15 | COC(=O)C1=C(O)[C@H](C(=O)OC)C2(O)C(C(=O)OC)[C@H](c3ccc(OC(=O)C(C)c4ccccc4)cc3)C[C@@H]1[C@@H]2C(=O)OC (some centres not stated) | 36.2 µM | > 50 µM | 26.7 µM | > 50 µM | 33.7 µM | > 50 µM | 23.8 µM | > 50 µM | 27.4 µM | > 50 µM | 8.53 µM | 23 µM | 10.7 µM | 20.6 µM | – | – | 12.3 µM | > 50 µM | – | –
16 | O=S(=O)([O-])c1ccc(N=Cc2ccccc2[O-])cc1.O=S(=O)([O-])c1ccc(N=Cc2ccccc2[O-])cc1.[Co+2] | – | – | 59.5 µM | > 100 µM | – | – | – | – | – | – | – | – | 79.1 µM | > 100 µM | – | – | – | – | > 100 µM | 21.7 µM
17 | CSCS(=O)C[C@H](CO)NC(=O)/C=C/c1c(C)[nH]c(=O)[nH]c1=O (some centres not stated) | – | – | 1.89 µM | 7.94 µM and 3.51 µM | – | 6.86 µM | 1.57 µM | 4.92 µM and 3.67 µM | 0.498 µM and 0.297 µM | 3.63 µM and 1.91 µM | 1.7 µM | 5.07 µM and 5.39 µM | 2.5 µM | 6.27 µM and 4.1 µM | 2.3 µM | 10 µM and 12.2 µM | – | – | 6.73 µM and 5.09 µM | –
18 | O=C(Nc1cccc2c1C(=O)c1c(NC(=O)c3ccccc3)ccc(Nc3cccc4c3C(=O)c3ccccc3C4=O)c1C2=O)c1ccccc1 | – | – | – | > 100 µM | – | – | – | > 100 µM | – | > 100 µM | – | > 100 µM | – | > 100 µM | – | – | – | – | > 100 µM | –
19 | COC(=O)c1ccccc1N(C(=O)c1ccccc1)c1ccccc1C | – | – | – | > 100 µM | – | – | – | > 100 µM | – | > 100 µM | – | > 100 µM | – | > 100 µM | – | > 100 µM | – | – | 54.6 µM | –
